The subject of this assay is acetyl–alpha-tubulin in 518A2 melanoma cells. In words: Western blot and immunofluorescence of acetyl-alpha-tubulin. The assay is classed as cell-based, human. The conditions noted are these: 4f 4, 5, 6 µM (blot), 4 µM (immunofluorescence), 24 h. As to the method: After harvesting the cells by trypsination, they were pelleted by centrifugation (300× g, 5 min) followed by cell lysis in 100 µL lysis buffer (20 mM DTT, 200 µM sodium vanadate, 50 mM Tris/HCl, 1% triton X-100, 150 mM NaCl, pH 7.4) for 10 min on ice. […] Equal amounts of total protein were subjected to 10% SDS-polyacrylamide gel electrophoresis (SDS-PAGE) and transferred to polyvinylidene difluoride membranes (PVDF, Carl Roth). For subsequent analysis of acetylated protein and of alpha-tubulin which was used as a loading control, membranes were blocked and incubated with primary antibody solutions in 5% bovine serum albumin in 1× TBS or 5% milk powder in PBS, respectively. The protein bands were visualized by chemoluminescence (secondary antibody-HRP conjugates, ECL detection system; Cell Signaling) using a LAS-3000 imager (Fujifilm).
Immuofluorescence staining of acetylated alpha- tubulin.
After washing the cells with PBS, they were fixed in 3.7% formaldehyde in PBS (20 min, rt) followed by blocking and permeabilization in TBS supplemented with 5% BSA and 0.1% triton X-100 (30 min, rt). […]
antibody conjugate in the dark (2 h, rt). […] Pictures were taken by using a Zeiss Imager A1 AX10 fluorescence microscope (400× magnification). […]
The open image area after 24 h (%) compared to that at 0 h was quantified from three independent experiments by using the imageJ 1.50i software. […]

Consider `COc1ccc(-c2ocnc2-c2cc(Br)c(OC)c(OC)c2)cc1OCCCCCC(=O)NO` [4f, N-Hydroxy-6-[1-methoxy-4-(4’-(3’’-bromo-4’’,5’’-dimethoxyphenyl)oxazol-5’-yl)-2-phenoxy]hexanamide], for which the acetylation of alpha-tubulin entry is reported as “distinct increase of acetyl–alpha-tubulin”.
